Read-outs that look alike come from different tables or passages of the source.
What was measured:
[1] = biological target: GDP-bound KRAS protein (aa 1-169), containing both G12D and C118A amino acid substitutions (Homo sapiens (Human), UniProt P01116, C118A/G12D); experiment: KRAS G12D Coupled Nucleotide Exchange Assay; format: biochemical; details: read-out: KRAS G12D Coupled Exchange IC50
[2] = test system: Phosphorylation of ERK1/2 in AsPC-1 cells; experiment: Phospho-ERK1/2 MSD Assay; format: cell-based, human; details: read-out: 2 h p-ERK (AsPC-1 cells), IC50
Method in brief: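 Read-out: MSD electrochemiluminescent detection of phosphorylated ERK1/2 in whole-cell lysates, fitted to a 4-parameter logistic curve for IC50. Prior to lysis, AsPC-1 cells (25,000 per well) received a 2 h compound dose-response at 37 °C.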

[3] = biological target: His-tagged KRAS G12D protein (Homo sapiens (Human), UniProt P01116, G12D); experiment: KRAS G12D TR-FRET Assay; format: binding; details: read-out: KRAS G12D Binding IC50
Method in brief: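 Each incubation ran at room temperature: enzyme with compound for 30 minutes, peptide for one hour, and detection reagents (0.4 nM europium anti-6×His, 5 nM streptavidin-d2) for one hour more. Protein and peptide stocks were each diluted to 20 nM before addition.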

[4] = test system: AsPC-1 cells; experiment: AsPC-1 CTG Assay (CellTiter-Glo cell viability); format: cell-based, human; details: AsPC-1, 72 h, first value of the cell, read-out: G12D/C/V Cell Proliferation CTG (72 h) AsPC-1
Method in brief: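 IC50 values derive from 4-parameter logistic fits of CellTiter-Glo luminescence, expressed relative to DMSO. Compound dilution series were applied to overnight-seeded AsPC-1 or SW620 cells (RPMI 1640, 10% FBS) for 72 h at 37 °C, 5% CO2.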

Sequence of GDP-bound KRAS protein (aa 1-169), containing both G12D and C118A amino acid substitutions (P01116 other isoform, or with tags, fused parts or gaps G12D/C118A): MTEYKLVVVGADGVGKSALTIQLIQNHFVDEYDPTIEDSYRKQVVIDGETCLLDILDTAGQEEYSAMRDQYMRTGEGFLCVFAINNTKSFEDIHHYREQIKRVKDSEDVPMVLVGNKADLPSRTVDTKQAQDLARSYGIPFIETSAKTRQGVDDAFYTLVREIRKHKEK
Sequence of His-tagged KRAS G12D protein (P01116 other isoform, or with tags, fused parts or gaps G12D): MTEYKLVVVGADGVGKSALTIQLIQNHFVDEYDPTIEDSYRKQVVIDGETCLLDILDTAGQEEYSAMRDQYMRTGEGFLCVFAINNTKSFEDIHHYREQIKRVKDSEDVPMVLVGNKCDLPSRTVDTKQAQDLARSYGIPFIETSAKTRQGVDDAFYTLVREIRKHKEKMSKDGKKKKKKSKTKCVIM

Row | SMILES | IC50 [1] [nM] | IC50 ([2]; Homo sapiens, ASPC1, 2 h) [nM] | IC50 [3] [nM] | IC50 ([4]; Homo sapiens, ASPC1, 72 h) [nM] | IC50 ([2]; 2 h) [nM] | IC50 [4] [nM]
1 | O=C1N[C@@H]2CCCCN(C2)c2nc(OC[C@@]34CCCN3C[C@H](F)C4)nc3c(F)c(ncc23)-c2c3c(cc4[nH]ncc24)CC[C@H]3CCO1 [Example 301, (16R,22S)-34-fluoro-8-(((2R,7aS)-2-fluorotetrahydro-1H-pyrrolo[1,2-a]pyrrol-7a(5H)-yl)methoxy)-19-oxa-3,7,9,11,17,28,29-heptaazaheptacyclo[20.9.1.1~2,6~.1~11,16~.0~5,10~.0~25,32~.0~27,31~]tetratriaconta-1(31),2(34),3,5,7,9,25(32),26,29-nonaen-18-one] | 3 | 60.5 | 5 | 954 |  | 
2 | C[C@@]12COCCN(C1)c1nc(OC[C@H]3CC[C@@H]4COCCN43)nc3c(F)c(ncc13)-c1c(c(Cl)cc3[nH]ncc13)CCCOC(=O)O2 [Example 308, (26S)-18-chloro-32-fluoro-4-((6R,8aR)-hexahydro-1H-pyrrolo[2,1-c][1,4]oxazin-6-ylmethoxy)-26-methyl-23,25,28-trioxa-1,3,5,9,14,15-hexaazahexacyclo[24.4.1.1~6,10~.0~2,7~.0~11,19~.0~12,16~]dotriaconta-2,4,6,8,10(32),11,13,16,18-nonaen-24-one] | 3 | 16.3 | 6 | 22 |  | 
3 | C[C@@]12COCCN(C1)c1nc(OC[C@@H]3CC[C@H]4COCCN43)nc3c(F)c(ncc13)-c1c(c(Cl)cc3[nH]ncc13)CCCOC(=O)O2 [Example 309, (26S)-18-chloro-32-fluoro-4-((6S,8aS)-hexahydro-1H-pyrrolo[2,1-c][1,4]oxazin-6-ylmethoxy)-26-methyl-23,25,28-trioxa-1,3,5,9,14,15-hexaazahexacyclo[24.4.1.1~6,10~.0~2,7~.0~11,19~.0~12,16~]dotriaconta-2,4,6,8,10(32),11,13,16,18-nonaen-24-one] | 4 | 71.6 | 10 | 153 |  | 
4 | O=C1OCCCc2c(Cl)cc3[nH]ncc3c2-c2ncc3c(nc(OC[C@@]45CCCN4C[C@H](F)C5)nc3c2F)N2CCOC[C@]3(C2)C[C@@H](C3)O1 [Example 312, (1S,3S)-11-chloro-34-fluoro-25-(((2R,7aS)-2-fluorotetrahydro-1H-pyrrolo[1,2-a]pyrrol-7a(5H)-yl)methoxy)-4,6,31-trioxa-14,15,20,24,26,28-hexaazaheptacyclo[26.4.1.1~1,3~.1~19,23~.0~10,18~.0~13,17~.0~22,27~]pentatriaconta-10,12,15,17,19(34),20,22,24,26-nonaen-5-one] | 2 | 342 | 4 | 1080 |  | 
5 | O=C1OCCCc2c(Cl)cc3[nH]ncc3c2-c2ncc3c(nc(OC[C@@]45CCCN4C[C@H](F)C5)nc3c2F)N2CCOCC3(CC(C3)O1)C2 [Example 313] | 11 | 462 | 19 | 1210 |  | 
6 | CO[C@@H]1C[C@@H](COc2nc3c4cnc(c(F)c4n2)-c2c(c(Cl)cc4[nH]ncc24)CCCOC(=O)O[C@]2(C)COCCN3C2)N(C)C1 [Example 319, (26S)-18-chloro-32-fluoro-4-(((2S,4R)-4-methoxy-1-methyl-2-pyrrolidinyl)methoxy)-26-methyl-23,25,28-trioxa-1,3,5,9,14,15-hexaazahexacyclo[24.4.1.1~6,10~.0~2,7~.0~11,19~.0~12,16~]dotriaconta-2,4,6,8,10(32),11,13,16,18-nonaen-24-one] | 3 | 26.7 | 6 | 134 |  | 
7 | O=C1OCCCc2c(Cl)cc3[nH]ncc3c2-c2ncc3c(nc(OC[C@@]45CCCN4C[C@H](F)C5)nc3c2F)N2CCC[C@]3(C2)C[C@H](C3)O1 [Example 323, (1R,3S)-11-chloro-33-fluoro-25-(((2R,7aS)-2-fluorotetrahydro-1H-pyrrolo[1,2-a]pyrrol-7a(5H)-yl)methoxy)-4,6-dioxa-14,15,20,24,26,28-hexaazaheptacyclo[26.3.1.1~1,3~.1~19,23~.0~10,18~.0~13,17~.0~22,27~]tetratriaconta-10,12,15,17,19(33),20,22,24,26-nonaen-5-one] | 2 |  | 5 |  | 30.5 | 318
8 | C[C@@H]1C[C@@H](COc2nc3c4cnc(c(F)c4n2)-c2c(c(Cl)cc4[nH]ncc24)CCCOC(=O)O[C@@H]2COCCN3C2)N(C)C1 [Example 328, (26S)-18-chloro-4-(((2S,4R)-1,4-dimethyl-2-pyrrolidinyl)methoxy)-32-fluoro-23,25,28-trioxa-1,3,5,9,14,15-hexaazahexacyclo[24.4.1.1~6,10~.0~2,7~.0~11,19~.0~12,16~]dotriaconta-2,4,6(32),7,9,11,13,16,18-nonaen-24-one] | 3 | 29 | 5 | 50 |  | 
9 | O=C1OCCc2c(Cl)cc3[nH]ncc3c2-c2cc3nc(OC[C@@]45CCCN4C[C@H](F)C5)nc(c3cn2)N2CCC[C@]3(C2)C[C@H](C3)O1 [Example 343, (1R,3S)-10-chloro-24-(((2R,7aS)-2-fluorotetrahydro-1H-pyrrolo[1,2-a]pyrrol-7a(5H)-yl)methoxy)-4,6-dioxa-13,14,19,23,25,27-hexaazaheptacyclo[25.3.1.1~1,3~.1~18,22~.0~9,17~.0~12,16~.0~21,26~]tritriaconta-9,11,14,16,18(32),19,21,23,25-nonaen-5-one] | 13 | 45.2 | 22 | 953 |  | 
10 | CN1CCC[C@H]1COc1nc2c3cnc(c(F)c3n1)-c1cc(O)cc3ccc(F)c(c13)CCOC(=O)O[C@]1(C)COCCN2C1 [Example 344, (16S)-23,32-difluoro-28-hydroxy-16-methyl-8-(((2S)-1-methyl-2-pyrrolidinyl)methoxy)-14,17,19-trioxa-3,7,9,11-tetraazahexacyclo[20.7.1.1~2,6~.1~11,16~.0~5,10~.0~26,30~]dotriaconta-1(30),2(32),3,5,7,9,22,24,26,28-decaen-18-one] | 3 | 5.7 | 8 | 156 |  | 
11 | C[C@@]12COCCN(C1)c1nc(OC[C@@]34CCCN3C[C@H](F)C4)nc3c(F)c(ncc13)-c1cc(O)cc3ccc(F)c(c13)CCOC(=O)O2 [Example 345, (16S)-23,32-difluoro-8-(((2R,7aS)-2-fluorotetrahydro-1H-pyrrolo[1,2-a]pyrrol-7a(5H)-yl)methoxy)-28-hydroxy-16-methyl-14,17,19-trioxa-3,7,9,11-tetraazahexacyclo[20.7.1.1~2,6~.1~11,16~.0~5,10~.0~26,30~]dotriaconta-1(30),2(32),3,5,7,9,22,24,26,28-decaen-18-one] | 1 | 0.7 | 3 | 16 |  | 
12 | C[C@@]12COCCN(C1)c1nc(OC[C@@]34CCCN3C[C@H](F)C4)nc3cc(ncc13)-c1c(c(Cl)cc3[nH]ncc13)CCCOC(=O)O2 [Example 346, (26S)-18-chloro-4-(((2R,7aS)-2-fluorotetrahydro-1H-pyrrolo[1,2-a]pyrrol-7a(5H)-yl)methoxy)-26-methyl-23,25,28-trioxa-1,3,5,9,14,15-hexaazahexacyclo[24.4.1.1~6,10~.0~2,7~.0~11,19~.0~12,16~]dotriaconta-2,4,6(32),7,9,11,13,16,18-nonaen-24-one] | 2 | 13.4 | 5 | 297 |  | 
13 | C[C@@H]1CN(c2nc3c4cnc(c(F)c4n2)-c2c(c(Cl)cc4[nH]ncc24)CCCOC(=O)O[C@@H]2COCCN3C2)CCN1 [Example 348, (26S)-18-chloro-32-fluoro-4-((3R)-3-methyl-1-piperazinyl)-23,25,28-trioxa-1,3,5,9,14,15-hexaazahexacyclo[24.4.1.1~6,10~.0~2,7~.0~11,19~.0~12,16~]dotriaconta-2,4,6,8,10(32),11,13,16,18-nonaen-24-one] | 4 | 298 | 13 | 2220 |  | 
14 | Cc1cc2[nH]ncc2c2c1CCOC(=O)O[C@H]1C[C@]3(CCCN(C3)c3nc(OC[C@@]45CCCN4C[C@H](F)C5)nc4cc-2ncc34)C1 [Example 349, (1R,3S)-24-(((2R,7aS)-2-fluorotetrahydro-1H-pyrrolo[1,2-a]pyrrol-7a(5H)-yl)methoxy)-10-methyl-4,6-dioxa-13,14,19,23,25,27-hexaazaheptacyclo[25.3.1.1~1,3~.1~18,22~.0~9,17~.0~12,16~.0~21,26~]tritriaconta-9,11,14,16,18(32),19,21,23,25-nonaen-5-one] | 2 | 30.4 | 5 | 645 |  | 

Source: patent publication US20240294551A1 (AMGEN INC., priority 2022, published 2024)
